Results on 11 molecules are retold here after patent publication US20240309004A1, “SELECTIVE CYCLIN-DEPENDENT KINASE INHIBITORS AND METHODS OF THERAPEUTIC USE THEREOF” (ViroKyne Therapeutics, LLC, priority 2021, published 2024).

Like-named read-outs stand apart in the source and are kept apart here.

Data set [1] has as its system HCMV strain AD169. Briefly: HCMV primary assay (CPE), strain AD169, HFF cells. In kind it is cell-based, Human Cytomegalovirus. On the procedure: The antiviral activity of the compound against HCMV in the described Primary assay was measured by treating primary Human foreskin fibroblast (HFF) cells infected with HCMV with a range of compound concentrations—description of methods for this assay can be found in section 1.3.2.1. […] . Additional tested assay parameters in this Primary assay can be found in Table 3.2.1 and include EC90, S150, and S190 values—descriptions of those data points can be found in section 3.2.1.

The nature of data set [2]: Cytotoxicity concurrent with HCMV AD169 primary assay. In kind it is cell-based, human. Particulars: human.
The mark [3] stands for this setting: Human betaherpesvirus 5, HCMV primary assay, virus strain AD169, HFF cells, read-out: EC50.
The mark [4] stands for this setting: Human betaherpesvirus 5, HCMV primary assay, virus strain AD169, HFF cells, read-out: EC90.
[5] abbreviates: Human betaherpesvirus 5, AD169, HFF.

As usually defined, the EC50 is the concentration at which the effect is half-maximal. A word on the EC90: it is the concentration at which the effect reaches the 90% level. As a reminder, the CC50 is the concentration at which the toxic effect on the cells reaches its halfway point. Regarding `CC(C)(C)OC(=O)NCC1CCC(Nc2cc3c4ccc(F)cc4nn3cn2)CC1` (stereo not drawn) [VKT-001], in data set [1] (setting [3]), the EC50 worked out at 2 µM. Also, the EC90 in data set [1] (setting [4]) came to 2 µM. The molecule further came in with a CC50 in data set [2] (CC50) of 6.19 µM.

As for `CN(c1cc2c3ccc(F)cc3nn2cn1)C1CCC(CNC(=O)OC(C)(C)C)CC1` (stereo not drawn) [VKT-009-A], the EC50 in data set [1] (setting [3]) was found to be 0.4 µM. Further, the EC90 in data set [1] (setting [4]) was 0.4 µM. Half-maximal cytotoxicity in data set [2] (CC50) (CC50) was put at 0.57 µM.

Consider `CN(CC1CCC(N(C)c2cc3c4ccc(F)cc4nn3cn2)CC1)C(=O)OC(C)(C)C` (stereo not drawn) [VKT-009-B], for which the EC50 in data set [1] (setting [3]) stood at 0.08 µM. For the same molecule, in data set [1] (setting [4]), the EC90 was determined as 0.08 µM. In addition, half-maximal cytotoxicity in data set [2] (CC50) (CC50) was put at 0.17 µM.

`CC1CC(Nc2cc3c4ccc(F)cc4nn3cn2)CCO1` (stereo not drawn) [VKT-011]: in data set [1] (setting [3]), the EC50 is 10 µM. Also, the EC90 in data set [1] (setting [4]) was determined as 10 µM. In data set [2] (CC50), it took 38.6 µM to reach half-maximal cytotoxicity (CC50).

In the case of `CC1CC(Nc2cc3c4ccc(F)cc4nn3cn2)CC(C)O1` (stereo not drawn) [VKT-013], in data set [1] (setting [3]), the EC50 was determined as 10 µM. Besides, in data set [1] (setting [4]), the EC90 worked out at 10 µM. The molecule also came in with a CC50 in data set [2] (CC50) of 48.1 µM.

For `Fc1ccc2c(c1)nn1cnc(NC3COCCOC3)cc21` [VKT-016], the EC50 in data set [1] (setting [3]) worked out at 10 µM. In addition, the EC90 in data set [1] (setting [4]) turned out to be 10 µM. The midpoint of cytotoxicity in data set [2] (CC50), the CC50, lay at 48.5 µM.

Consider `CCN1CCC(Nc2cc3c4ccc(F)cc4nn3cn2)CC1` [VKT-025], for which the EC50 in data set [1] (setting [3]) came to 10 µM. The EC90 in data set [1] (setting [4]) was 10 µM. In data set [2] (CC50), this molecule showed a CC50 of 48.1 µM.

On to `CN(C)CC(=O)N1CCC(Nc2cc3c4ccc(F)cc4nn3cn2)CC1` [VKT-028], for which the EC50 in data set [1] (setting [3]) stood at 10 µM. Besides, in data set [1] (setting [4]), the EC90 was 10 µM. The same molecule gave a CC50 in data set [2] (CC50) of 32 µM.

Regarding `CNC(=O)CN1CCC(Nc2cc3c4ccc(F)cc4nn3cn2)CC1` [VKT-031], the EC50 in data set [1] (setting [3]) is 50 µM. Also, the EC90 in data set [1] (setting [4]) amounted to 50 µM. Moreover, half-maximal cytotoxicity in data set [2] (CC50) (CC50) was put at 50 µM.

In data set [1] (setting [5]), `OCCC1CCC(Nc2cc3c4ccc(F)cc4nn3cn2)CC1` (stereo not drawn) [VKT-032] showed an EC50 of 10 µM and an EC90 of 10 µM. For the same molecule, in data set [2] (HCMV primary assay, HFF cells, read-out: CC50), the CC50 came to 26.2 µM.

Turning to `Fc1ccc2c(c1)nn1cnc(NC3CCNCC3)cc21` [VKT-319, 7-fluoro-N-(piperidin-4-yl)pyrimido[1,6-b]indazol-3-amine], the EC50 in data set [1] (setting [3]) turned out to be 10 µM. Moreover, the EC90 in data set [1] (setting [4]) is 10 µM. Also, the CC50 in data set [2] (CC50) came out at 37.5 µM.
